In ChEMBL document CHEMBL1221216, “Chemical probes for histone-modifying enzymes” (Nat Chem Biol, 2008):
pEC50, pIC50: −log10 of the molar value.

Experiments:
[1] = biological target: T1, NAD-dependent protein deacetylase sirtuin-2 (Homo sapiens, UniProt Q8IXJ6); assay: Activation of human SirT2 protein fluorescence polarization assay
T1 sequence (Q8IXJ6 whole entry): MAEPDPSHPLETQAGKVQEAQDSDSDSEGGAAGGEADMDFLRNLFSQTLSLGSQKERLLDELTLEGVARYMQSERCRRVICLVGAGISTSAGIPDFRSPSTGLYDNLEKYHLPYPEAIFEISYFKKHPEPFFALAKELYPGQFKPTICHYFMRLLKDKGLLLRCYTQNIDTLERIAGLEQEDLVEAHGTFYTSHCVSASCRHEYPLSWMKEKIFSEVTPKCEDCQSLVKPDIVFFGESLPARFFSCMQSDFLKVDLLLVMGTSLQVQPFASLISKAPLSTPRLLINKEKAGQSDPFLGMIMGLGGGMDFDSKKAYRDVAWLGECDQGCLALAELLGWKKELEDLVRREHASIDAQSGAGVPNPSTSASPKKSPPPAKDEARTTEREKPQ

[2] = Inhibition of histone methyltransferase SU(VAR)3-9

Structure (SMILES): O=C(Nc1ccccc1-c1cn2c(CN3CCNCC3)csc2n1)c1cnc2ccccc2n1
- pEC50 [1]: 6.80

Structure (SMILES): CN1C(=O)[C@@]23C[C@]4([C@]56C[C@@]78SS[C@@](CO)(C(=O)N7[C@H]5Nc5ccccc56)N(C)C8=O)c5ccccc5N[C@@H]4N2C(=O)[C@]1(CO)SS3 [CHAETOCIN]
- pIC50 [2]: 6.22
